Test systems include KM12 colon; ACHN renal; SNB-75 CNS; TK-10 renal; NCI-H23 lung; CAKI-1 renal; MALME-3M melanoma; PC-3 prostate; BT-549 breast; NCI-H226 lung.
Holding throughout (test): NCI anticancer screen, dose series, 48 h

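Step 1: Grow cells in 96-well plates. Step 2: Expose to compound for 48 hours at 5 concentrations. Step 3: Interpolate endpoints linearly; if unreached, use highest concentration. GI50 marks 50% less growth. TGI: concentration producing complete growth inhibition.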

Consider `Nc1ccccc1Nc1ccccc1C(=O)[O-].Nc1ccccc1Nc1ccccc1C(=O)[O-].[Cu+2]`, for which the TGI in the assay on KM12 colon, with ACHN renal, in the assay with SNB-75 CNS, in the assay on TK-10 renal, in the assay with NCI-H23 lung and in the assay with CAKI-1 renal was greater than 100 µM each time. Moreover, the TGI in the assay on MALME-3M melanoma is greater than 100 µM.

Turning to `CSC1=Nc2ccccc2N(C)c2c1c(-c1ccccc1)nn2C`, the TGI in the assay on KM12 colon, in the assay with ACHN renal, in the assay with SNB-75 CNS, with PC-3 prostate, with TK-10 renal and in the assay on NCI-H23 lung was greater than 100 µM throughout. Further, the TGI with CAKI-1 renal and in the assay on BT-549 breast was greater than 100 µM each time.

Consider `O=C1CC(=O)N(c2ccccc2)N1/C(=C/c1ccccc1)c1ccccc1`, for which the TGI with KM12 colon was found to be 66.5 µM; in the assay with ACHN renal, 89.5 µM; in the assay with SNB-75 CNS, 83.2 µM; in the assay on PC-3 prostate, 47.7 µM; with TK-10 renal it was 48.6 µM; in the assay on NCI-H23 lung, 65.4 µM. Also, the TGI in the assay with CAKI-1 renal is 33.7 µM; in the assay on BT-549 breast, 50.2 µM; in the assay with NCI-H226 lung it was 73.5 µM.

`C=CC(=O)Nc1cccc(-c2nc(SC)nc(Nc3ccccc3OC)c2C#N)c1`: the GI50 with KM12 colon was 3.02 µM; in the assay on ACHN renal it was 1.7 µM; in the assay with SNB-75 CNS it was 1.5 µM; in the assay with PC-3 prostate, 1.94 µM; in the assay with TK-10 renal, 1.99 µM; with NCI-H23 lung it was 2.15 µM. The GI50 is 1.71 µM in the assay on CAKI-1 renal, 3.19 µM with BT-549 breast, 1.54 µM with MALME-3M melanoma and 9.7 µM in the assay on NCI-H226 lung. For the same molecule, the TGI in the assay with KM12 colon came out at 12 µM; in the assay on ACHN renal, 3.32 µM; in the assay with SNB-75 CNS, 4.35 µM; with PC-3 prostate, 4.9 µM; in the assay with TK-10 renal, 4.02 µM; with NCI-H23 lung, 5.99 µM. For the same molecule, the TGI with CAKI-1 renal was 4.3 µM; in the assay with BT-549 breast, 38.5 µM; in the assay with MALME-3M melanoma it was 3.44 µM; in the assay on NCI-H226 lung, 36.1 µM.

For the molecule `CC(C)CC(N)C(=O)OCN1C(=O)C2C3C=CC(C2C1=O)C1C2C(=O)N(COC(=O)C(N)CC(C)C)C(=O)C2C31` (configuration not stated), the TGI with KM12 colon, in the assay with ACHN renal, in the assay with SNB-75 CNS, with TK-10 renal, with NCI-H23 lung and in the assay with CAKI-1 renal was greater than 100 µM each time. The TGI in the assay with MALME-3M melanoma and with NCI-H226 lung was greater than 100 µM in each case.

As to `CCn1cc(C(c2ccc(Cl)cc2)n2ccnc2)c2cc(Br)ccc21` (configuration not stated), the TGI with KM12 colon is 24.3 µM; in the assay with ACHN renal it was 25.9 µM; with SNB-75 CNS, 28.5 µM; in the assay with PC-3 prostate it was 22.8 µM; in the assay with TK-10 renal it was 33.7 µM; in the assay with NCI-H23 lung it was 31.1 µM. Also, the TGI with CAKI-1 renal came to 27.3 µM; in the assay on BT-549 breast, 31.9 µM; with MALME-3M melanoma, 32.7 µM; in the assay on NCI-H226 lung it was 76.5 µM.

As to `Cc1ccc2c(c1)nc(N)n[n+]2[O-]`, the TGI with KM12 colon, in the assay with ACHN renal, in the assay with SNB-75 CNS, with PC-3 prostate, with TK-10 renal and with NCI-H23 lung was greater than 100 µM throughout. In addition, the TGI in the assay with CAKI-1 renal, with BT-549 breast and with NCI-H226 lung was greater than 100 µM throughout.

With `OCC1CCCC(n2cnc3c(=S)nc[nH]c32)O1` (configuration not stated), the TGI in the assay on KM12 colon, in the assay with ACHN renal, in the assay on SNB-75 CNS, in the assay with PC-3 prostate, in the assay on TK-10 renal and in the assay with NCI-H23 lung was greater than 100 µM each time. The TGI in the assay on CAKI-1 renal, in the assay with BT-549 breast, in the assay on MALME-3M melanoma and with NCI-H226 lung was greater than 100 µM throughout.

For `Cc1[nH]c(/C=C2\C(=O)Nc3ccc(S(=O)(=O)Cc4c(Cl)cccc4Cl)cc32)c(C)c1C(=O)N1CCC[C@@H]1CN1CCCC1`, the GI50 with KM12 colon was 0.138 µM; in the assay with ACHN renal, 1.63 µM; with PC-3 prostate it was 1.73 µM; with TK-10 renal, 1.92 µM; in the assay with NCI-H23 lung, 4.38 µM; in the assay with CAKI-1 renal, 5.05 µM. The GI50 is 14.1 µM in the assay on BT-549 breast and 15.1 µM with NCI-H226 lung. Also, the TGI with KM12 colon is 4.77 µM; in the assay on ACHN renal, 3.07 µM; in the assay on PC-3 prostate, greater than 21.5 µM; in the assay on TK-10 renal it was 3.85 µM; with NCI-H23 lung, 12.3 µM; in the assay on CAKI-1 renal, 13.6 µM. The TGI with BT-549 breast turned out to be 83.1 µM; with NCI-H226 lung, 54.8 µM.

Turning to `COC1OC(=O)[C@H]2O[N+]([O-])=C(C)[C@@H]12` (some centres not stated), the TGI with KM12 colon, in the assay on SNB-75 CNS, with NCI-H23 lung, in the assay with CAKI-1 renal, with MALME-3M melanoma and in the assay on NCI-H226 lung was greater than 100 µM throughout.

For the molecule `O=C(O)c1ccc(NC(c2ccccc2)c2ccc3cccnc3c2O)cc1` (configuration not stated), the TGI is greater than 100 µM with KM12 colon; greater than 100 µM in the assay with ACHN renal; 56.7 µM in the assay on SNB-75 CNS; greater than 96 µM in the assay with PC-3 prostate; 71.6 µM in the assay with TK-10 renal; greater than 100 µM in the assay on NCI-H23 lung. The TGI is 59.2 µM in the assay with CAKI-1 renal, greater than 74 µM in the assay with BT-549 breast, greater than 100 µM in the assay on MALME-3M melanoma and greater than 31 µM with NCI-H226 lung.

Turning to `N#Cc1c(NC(=S)NC(=O)c2ccccc2)nc2c(c1-c1ccccc1)CCC2`, the TGI in the assay with KM12 colon, in the assay with ACHN renal, with SNB-75 CNS, with PC-3 prostate, in the assay on TK-10 renal and in the assay with NCI-H23 lung was greater than 100 µM each time. Further, the TGI with CAKI-1 renal, with BT-549 breast and with MALME-3M melanoma was greater than 100 µM each time.

As to `COc1cc2oc(-c3ccc(O)cc3)c(OC3OC(C)C(O)C(O)C3O)c(=O)c2c(O)c1OC` (configuration not stated), the TGI with KM12 colon, in the assay with ACHN renal, in the assay with SNB-75 CNS, with PC-3 prostate, with TK-10 renal and in the assay with NCI-H23 lung was greater than 100 µM each time. The TGI with CAKI-1 renal, with BT-549 breast, in the assay on MALME-3M melanoma and in the assay with NCI-H226 lung was greater than 100 µM in each case.

On to `O=[Se]([O-])c1ccccc1.O=[Se]([O-])c1ccccc1.[OH3+].[OH3+].[Pt+2]`, for which the GI50 in the assay on KM12 colon was 3.41 µM; with SNB-75 CNS, 6.17 µM; with NCI-H23 lung, 7.01 µM; with CAKI-1 renal it was 11 µM; in the assay on MALME-3M melanoma, 16.5 µM; in the assay on NCI-H226 lung, 12.9 µM. Further, the TGI was 25 µM in the assay on KM12 colon; 33.8 µM with SNB-75 CNS; 88.4 µM in the assay with NCI-H23 lung; greater than 26.4 µM in the assay on CAKI-1 renal; 54.2 µM with MALME-3M melanoma; 52.5 µM in the assay on NCI-H226 lung.

In the case of `O=C(Nc1ccc(I)cc1C(=O)NCCO)c1cccs1`, the TGI in the assay with KM12 colon, in the assay with ACHN renal, in the assay with PC-3 prostate, in the assay on NCI-H23 lung, with CAKI-1 renal and in the assay on BT-549 breast was greater than 100 µM in each case. In the assay on NCI-H226 lung, this molecule showed a TGI greater than 100 µM.

For `Nc1n[nH]c(=O)[nH]1`, the TGI in the assay with KM12 colon, in the assay with SNB-75 CNS, in the assay on NCI-H23 lung, with CAKI-1 renal, in the assay with MALME-3M melanoma and with NCI-H226 lung was greater than 100 µM throughout.

Regarding `CCC(=O)C(c1ccccc1)c1ccccn1` (configuration not stated), the TGI in the assay on KM12 colon, with ACHN renal, in the assay with SNB-75 CNS, with PC-3 prostate, in the assay on TK-10 renal and with NCI-H23 lung was greater than 100 µM each time. Moreover, the TGI with CAKI-1 renal, in the assay with BT-549 breast, in the assay with MALME-3M melanoma and with NCI-H226 lung was greater than 100 µM each time.
